The target of assay [1] is T1, human D2R/β-arrestin (Homo sapiens (Human), UniProt P14416). Description: cell-based. The settings on record: β-arrestin Antagonist, CHO-K1 cell line expressing human D2R/β-arrestin; quinpirole used as agonist.
The target in assay [2] is T1, human D2R/β-arrestin. Description: cell-based. The settings on record: cAMP Antagonist, CHO-K1 cell line expressing human D2R/β-arrestin; quinpirole used as agonist.
Protocol: The detection reagents are then added, and the read-out is detected.
Cells were prepared for assays by growing cultures for up to 2 weeks (from about 6-20 passages). A vial of frozen cells was thawed in a water bath held at 37° C. The cells were then transferred into a 50 ml tube with 10 ml growth media. The vial was rinsed with growth media and the contents transferred to the 50 ml tube. The 50 ml tube was centrifuged at 1200 rpm for 5 minutes at room temperature. […] When the cells reached about 90% confluence (approximately 3 days between passages), the cells were passaged and used for either the agonist or antagonist assays as described below.
The cells were prepared for Gi/cAMP assays as described above. The assays were performed using a PE Lance Ultra cAMP kit (TRF0263). The cells were grown on 225 mm dishes, then washed once with 1×PBS (Cellgro) before digestion with 2.5 ml 1× Detachment reagent (DRX 92-0009) for about 2 minutes. PBS (20 ml) was then added to the plate, and the cells were transferred to a 50 ml centrifuge tube, and centrifuged at room temperature using BD Dynac III, at 1200 rpm for 5 minutes. […] The plates were then incubated at room temperature for about 30 minutes before addition of Eu-cAMP tracer solution (100, PerkinElmer) and then ULight-anti-cAMP solution (100) to each well.
Assay [3] deals with T1, human D2R/β-arrestin. As to the kind of experiment: Gi/cAMP agonist assay (Lance Ultra cAMP, Forskolin). It counts as cell-based. The settings on record: CHO-K1 cell line expressing human D2R/β-arrestin. How it is done:
(§1) The assays can be performed using proper detection reagents either prepared using routine methods known in the art or commercially available (e.g., PE Lance Ultra cAMP kit (TRF0263)). Cells are grown to the necessary confluence and then detached. The cells are then centrifuged, washed, resuspended, and seeded into a container (e.g., 384-well plate). The cells are incubated (e.g., at 37° C., 5% CO2) for the appropriate period of time (e.g., 24 hours), before various compounds (e.g., a compound of the invention or a control compound) are added to the cells. Afterwards, cAMP inducing agents (e.g., Forskolin) are added to and incubated with the cells before detection reagents (e.g., a cAMP antibody, such as ULight-anti-cAMP solution) are added to the cells. Read-out (e.g., luminescence, or fluorescence) is detected using standard equipment.
Compounds were pin-transferred (100 nL) to the cells, and incubated for 10 min. at 37° C. […] Eu-cAMP tracer solution (100, PerkinElmer, […] in 17.64 ml kit buffer) and ULight-anti-cAMP solution (100, 120 μL antibody in 17.88 ml kit buffer) was then added to each well.

Assay [4] has as its target T1, human D2R/β-arrestin. Description: β-Arrestin agonist assay (PathHunter). It counts as cell-based. Particulars: CHO-K1 cell line expressing human D2R/β-arrestin. How it is done: as §1, with “PathHunter® β-Arrestin Detecting Kit (DiscoveRX)).” for “PE Lance Ultra cAMP kit (TRF0263)).”, “After incubation of the cells” for “Afterwards, cAMP inducing agents (e.g., Forskolin) are added to and incubated”, “compounds,” for “cells before”, “buffer containing Emerald II: Galactor-Star” for “cAMP antibody, such”, “provided DiscoveRX)” for “ULight-anti-cAMP solution)”, “The read-out” for “Read-out”
The detection reagent (9.6 μL, Buffer:Emerald II:Galactor-Star in a 19:5:1 ratio, i.e., 14.06 mL:3.7 mL:0.74 mL=18.5 mL) was then added to the agonist plates.

Broadly, the IC50 is the concentration that gives 50% inhibition. Low values mean inhibition by little substance, high ones a need for much substance. The term EC50 denotes the midpoint of the concentration-response curve. A high value points to lower potency in that assay.

SMILES strings stand for the structures.

T1 sequence (P14416 whole entry): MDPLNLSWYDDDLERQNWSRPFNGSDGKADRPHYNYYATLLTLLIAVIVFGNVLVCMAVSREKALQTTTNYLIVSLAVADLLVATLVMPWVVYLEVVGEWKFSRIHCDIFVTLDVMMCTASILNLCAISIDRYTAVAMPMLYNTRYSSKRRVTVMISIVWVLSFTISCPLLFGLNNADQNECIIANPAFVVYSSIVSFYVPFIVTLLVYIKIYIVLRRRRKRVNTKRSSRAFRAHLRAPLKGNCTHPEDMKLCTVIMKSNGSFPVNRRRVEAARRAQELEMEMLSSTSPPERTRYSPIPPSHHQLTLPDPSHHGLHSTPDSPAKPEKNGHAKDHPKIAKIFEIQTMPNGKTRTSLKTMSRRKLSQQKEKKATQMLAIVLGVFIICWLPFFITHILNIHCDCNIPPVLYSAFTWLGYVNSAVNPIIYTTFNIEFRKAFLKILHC

`O=C(NC(c1ccc(Cl)cc1)c1ccccn1)C1CCN(CCOC2CCCCC2)CC1` (centres unmarked) [Compound 17, N-((4-chlorophenyl) (pyridin-2-yl)methyl)-1-(2-(cyclohexyloxy)ethyl) piperidine-4-carboxamide]: the concentration for half-maximal inhibition (IC50) in assay [1] lay in the range of 1 to 10 µM; in assay [2] it was 0.1 to 1 µM. In addition, the half-maximal effective concentration (EC50) in assay [3] and in assay [4] was over 30 µM in each case.

In the case of `Fc1ccccc1OCCN1CCC(CN(CC(F)(F)F)C(c2ccc(Cl)cc2)c2ccccn2)CC1` (centres unmarked) [Compound 136, N-((4-chlorophenyl)(pyridin-2-yl)methyl)-2,2,2-trifluoro-N-((1-(2-(2-fluorophenoxy)ethyl)piperidin-4-yl)methyl)ethan-1-amine], the IC50 in assay [1] and in assay [2] was under 0.1 µM throughout. Also, the EC50 in assay [3] was 1 to 10 µM; in assay [4], over 30 µM.

In the case of `COc1ccccc1C(NC(=O)C1CCN(CCOc2ccccc2)CC1)c1ccc(Cl)cc1` (centres unmarked) [Compound 43], the half-inhibitory concentration (IC50) in assay [1] was 1 to 10 µM; in assay [2] it was over 30 µM. Moreover, the values for the concentration giving a half-maximal response (EC50) in assay [3] and in assay [4] were 1 to 10 µM and over 30 µM, respectively.

On to `O=C(NC(c1ccc(F)cc1)c1ccccn1)C1CCN(CCOc2ccc3ncsc3c2)CC1` (centres unmarked) [Compound 55, 1-(2-(benzo[d]thiazol-6-yloxy)ethyl)-N-((4-fluorophenyl)(pyridin-2-yl)methyl)piperidine-4-carboxamide], for which the half-inhibitory concentration (IC50) in assay [1] and in assay [2] was 1 to 10 µM in each case. The EC50 in assay [3] and in assay [4] was over 30 µM in each case.

Consider `O=C(NC(c1ccc(Cl)cc1)c1ccccn1)C1CCN(CCn2ccccc2=O)CC1` (centres unmarked) [Compound 9, N((4-chlorophenyl)(pyridin-2-yl)methyl)-1-(2-(2-oxopyridin-1(2H)-yl)ethyl) piperidine-4-carboxamide], for which the concentration for half-maximal inhibition (IC50) in assay [1] and in assay [2] was 1 to 10 µM each time. For the same compound, the EC50 in assay [3] and in assay [4] was over 30 µM in each case.

Regarding `O=C(NC(c1ccc(Cl)cc1)c1ccccn1)C1CCN(CC2COc3ccccc3O2)CC1` (centres unmarked) [Compound 140, N-((4-chlorophenyl)(pyridin-2-yl)methyl)-1-((2,3-dihydrobenzo[b][1,4]dioxin-2-yl)methyl)piperidine-4-carboxamide], the IC50 in assay [1] and in assay [2] was 1 to 10 µM throughout. The results for the EC50 in assay [3] and in assay [4] were 1 to 10 µM and over 30 µM, respectively.

On to `CN(CC1CCN(CCOc2ccccc2C(F)(F)F)CC1)C(c1ccc(Cl)cc1)c1ccccn1` (centres unmarked) [Compound 73], for which the IC50 in assay [1] and in assay [2] was under 0.1 µM in each case. In addition, the 50% effective concentration (EC50) in assay [3] and in assay [4] was over 30 µM each time.

`Fc1ccccc1C(NCC1CCN(CCOc2ccccc2)CC1)c1ccc(Cl)cc1` (single isomer, unassigned) [Compound 81a, 1-(4-chlorophenyl)-1-(2-fluorophenyl)-N-((1-(2-phenoxyethyl)piperidin-4-yl)methyl)methanamine]: the IC50 in assay [1] and in assay [2] was 0.1 to 1 µM in each case. For the same compound, the EC50 in assay [3] and in assay [4] was over 30 µM throughout.

In the case of `O=C(NC(c1ccccn1)c1ccccc1Cl)C1CCN(CCOc2ccccc2)CC1` (centres unmarked) [Compound 24], the figures for the 50% inhibitory concentration (IC50) in assay [1] and in assay [2] were 1 to 10 µM and over 30 µM, respectively. The concentration for a half-maximal effect (EC50) was 1 to 10 µM in assay [3] and over 30 µM in assay [4].

For the compound `CC1(C(=O)NC(c2ccc(Cl)cc2)c2ccccn2)CCN(CCOc2ccccc2)CC1` (centres unmarked) [Compound 144, N-((4-chlorophenyl)(pyridin-2-yl)methyl)-4-methyl-1-(2-phenoxyethyl)piperidine-4-carboxamide], the figures for the IC50 in assay [1] and in assay [2] were under 0.1 µM and over 30 µM, respectively. Also, the EC50 in assay [3] and in assay [4] was under 0.1 µM throughout.

As for `O=C1CCc2ccc(OCCCCN3CCCN(c4cccc(Cl)c4Cl)CC3)nc2N1` [UNC9975, reference compound], the IC50 in assay [1] and in assay [2] was 0.1 to 1 µM in each case. For the same compound, the EC50 in assay [3] is under 0.1 µM; in assay [4] it was over 30 µM.

With `COc1cccc(C(NC(=O)C2CCN(CCOc3ccccc3F)CC2)c2ccccn2)c1` (centres unmarked) [Compound 22, 1-(2-(2-fluorophenoxy)ethyl)-N-((3-methoxyphenyl)(pyridin-2-yl)methyl) piperidine-4-carboxamide], the half-maximal inhibitory concentration (IC50) in assay [1] and in assay [2] was 0.1 to 1 µM each time. The EC50 in assay [3] and in assay [4] was over 30 µM throughout.

For the compound `COc1cccc(C(NC(=O)C2CCN(CCOc3ccccc3C(F)(F)F)CC2)c2ccccn2)c1` (centres unmarked) [Compound 20, N-((3-methoxyphenyl)(pyridin-2-yl)methyl)-1-(2-(2-(trifluoromethyl)phenoxy)ethyl) piperidine-4-carboxamide], the values for the IC50 in assay [1] and in assay [2] were 0.1 to 1 µM and under 0.1 µM, respectively. For the same compound, the concentration giving a half-maximal response (EC50) in assay [3] and in assay [4] was over 30 µM throughout.

As to `O=C(NC(c1ccc(Cl)cc1)c1ccncc1F)C1CCN(CCOc2ccccc2)CC1` (centres unmarked) [Compound 117, N-((4-chlorophenyl)(3-fluoropyridin-4-yl)methyl)-1-(2-phenoxyethyl) piperidine-4-carboxamide], the IC50 is 1 to 10 µM in assay [1] and over 30 µM in assay [2]. For the same compound, the values for the EC50 in assay [3] and in assay [4] were 0.1 to 1 µM and over 30 µM, respectively.

`COc1cccc(C(NC(=O)C2CCN(CCOc3cc(F)ccc3F)CC2)c2ccccn2)c1` (centres unmarked) [Compound 90, 1-(2-(2,5-difluorophenoxy)ethyl)-N-((3-methoxyphenyl)(pyridin-2-yl)methyl) piperidine-4-carboxamide]: the half-maximal inhibitory concentration (IC50) in assay [1] and in assay [2] was 1 to 10 µM in each case. Besides, the EC50 is 1 to 10 µM in assay [3] and over 30 µM in assay [4].

With `O=C(NC(c1ccc(Cl)cc1)c1ccccn1)C1CCN(CCOc2cccc(F)c2)CC1` (centres unmarked) [Compound 4], the values for the IC50 in assay [1] and in assay [2] were 0.1 to 1 µM and over 30 µM, respectively. Moreover, the EC50 was under 0.1 µM in assay [3] and over 30 µM in assay [4].

Regarding `O=C(NC(c1cccnc1)c1ccccn1)C1CCN(CCOc2ccccc2)CC1` (centres unmarked) [Compound 29, 1-(2-phenoxyethyl)-N-(pyridin-2-yl(pyridin-3-yl)methyl)piperidine-4-carboxamide], the IC50 in assay [1] is 1 to 10 µM; in assay [2], over 30 µM. The concentration giving a half-maximal response (EC50) was 0.1 to 1 µM in assay [3] and over 30 µM in assay [4].

Consider `O=C(NC(c1ccc(Cl)cc1)c1ccccn1)C1CCN(CCOc2ccccc2)CC1` (single isomer, unassigned) [Compound 63a, N-((4-chlorophenyl)(pyridin-2-yl)methyl)-1-(2-phenoxyethyl)piperidine-4-carboxamide], for which the IC50 in assay [1] is 1 to 10 µM; in assay [2], over 30 µM. Moreover, the results for the EC50 in assay [3] and in assay [4] were 0.1 to 1 µM and over 30 µM, respectively.

On to `COc1ccccc1OCCN1CCC(C(=O)NCc2nccc3ccccc23)CC1` [Compound 108, N-(isoquinolin-1-ylmethyl)-1-(2-(2-methoxyphenoxy)ethyl)piperidine-4-carboxamide], for which the IC50 is 1 to 10 µM in assay [1] and over 30 µM in assay [2]. Besides, the EC50 is under 0.1 µM in assay [3] and over 30 µM in assay [4].

On to `COc1cccc(C(NC(=O)C2CCN(CCOc3ccccc3)CC2)c2cocn2)c1` (centres unmarked) [Compound 129, N-((3-methoxyphenyl)(oxazol-4-yl)methyl)-1-(2-phenoxyethyl)piperidine-4-carboxamide], for which the concentration for half-maximal inhibition (IC50) in assay [1] and in assay [2] was over 30 µM throughout. Further, the concentration giving a half-maximal response (EC50) in assay [3] was 1 to 10 µM; in assay [4], over 30 µM.

For the compound `CN(CC1(C)CCN(CCOc2ccccc2)CC1)C(c1ccc(Cl)cc1)c1ccccn1` (centres unmarked) [Compound 131, 1-(4-chlorophenyl)-N-methyl-N-((4-methyl-1-(2-phenoxyethyl)piperidin-4-yl)methyl)-1-(pyridin-2-yl)methanamine], the half-maximal inhibitory concentration (IC50) was 1 to 10 µM in assay [1] and over 30 µM in assay [2]. Besides, the half-maximal effective concentration (EC50) in assay [3] was under 0.1 µM; in assay [4], 1 to 10 µM.

With `Oc1c(CN2CCN(c3ccccn3)CC2)cc(Cl)c2cccnc12` [MLS1547, reference compound], the IC50 was 1 to 10 µM in assay [1] and over 30 µM in assay [2]. Moreover, the values for the 50% effective concentration (EC50) in assay [3] and in assay [4] were under 0.1 µM and over 30 µM, respectively.

Consider `CC(C)C(NC(=O)C1CCN(CCOc2ccccc2)CC1)c1ccccn1` (centres unmarked) [Compound 38, N-(2-methyl-1-(pyridin-2-yl)propyl)-1-(2-phenoxyethyl)piperidine-4-carboxamide], for which the concentration for half-maximal inhibition (IC50) in assay [1] was 1 to 10 µM; in assay [2] it was over 30 µM. Moreover, the EC50 in assay [3] was 1 to 10 µM; in assay [4], over 30 µM.
